The text below walks through data of US7256176B2, “Methods of modulating β cell function” (Joslin Diabetes Center, Inc., priority 2002, dated 2007).

In one test the target is human MCH-2R (Homo sapiens, UniProt Q969V1). Conditions: cited from earlier work.
Another test relates to rat adipocytes. The following applies: cited from earlier work.
For another test, the system named is MAP kinase. Description: Effect of MCH on MAP kinase activity in islets or clonal β-cells. Type of test: cell-based, mouse. Conditions: islets or clonal β-cells treated with 1 μM MCH. An excerpt: To begin to examine the mechanism of action of MCH in the islets the effect of the peptide on MAP kinase activity was investigated.
Test [1] relates to islets isolated from C57B1/6J mice. Briefly: MCH stimulation of insulin secretion from overnight cultured isolated islets. The class given is cell-based, mouse.
The test system of the next test is feeding. Conditions: administered ICV; cited from earlier work.
In test [2] the test system is islets isolated from MCH over expressing mice. Description: MCH treatment of islets from MCH over expressing mice (insulin secretion). The following applies: n=2, control 2.8±0.36. Type of test: cell-based, mouse.

Positions of bridges follow the written chain, without caps; N, C: chain ends.

Sequence of human MCH-2R (Q969V1 whole entry): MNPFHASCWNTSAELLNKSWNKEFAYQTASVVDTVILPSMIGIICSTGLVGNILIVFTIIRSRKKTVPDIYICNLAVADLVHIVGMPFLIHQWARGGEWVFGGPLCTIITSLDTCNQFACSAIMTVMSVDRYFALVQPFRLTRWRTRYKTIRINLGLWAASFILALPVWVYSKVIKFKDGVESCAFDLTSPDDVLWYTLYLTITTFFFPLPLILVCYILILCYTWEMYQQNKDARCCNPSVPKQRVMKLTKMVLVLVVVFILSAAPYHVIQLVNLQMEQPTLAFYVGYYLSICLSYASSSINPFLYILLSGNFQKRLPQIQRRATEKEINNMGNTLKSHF

As for “Arg-cyclo(S-S)(Cys-Met-Leu-Gly-Arg-Val-Tyr-Arg-Pro-Cys)”, the “activation of receptor compared with full-length human MCH” value with human MCH-2R is “about as effectively as full-length human MCH”.
Take “NH2-Asp-Phe-Asp-Met-Leu-Arg-Cys-Met-Leu-Gly-Arg-Val-Tyr-Arg-Pro-Cys-Trp-Gln-Val-COOH (H-DFDMLRCMLGRVYRPCWQV-OH; disulfide 7-16 (inferred); ends not checked) [MCH, cyclic 19 amino-acid peptide that is an important regulator of feeding behavior]”: in the test with rat adipocytes, the leptin secretion entry is reported as “stimulate leptin secretion”. In addition, the “effect on MAP kinase levels” value with MAP kinase was “No consistent effect”. Moreover, the insulin secretion was 2.1±0.11 % of insulin content in test [1] (100 nM MCH, 30 min incubation, 11.1 mM glucose, n=3, p<0.02 vs control 0.86±0.22) and 11.4±0.49 pg/μg protein in test [2]. In addition, in test [1] (overnight cultured islets), the “insulin secretion, dependence on concentration and time” value is “concentration- and time-dependent insulin secretion”. Besides, in the test on feeding, the feeding entry was “acute increase in feeding”.
